Laboratory results: ChEMBL document CHEMBL3885861, “Open TG-GATES”

Species: Rattus norvegicus
Assay: Open TG-GATES - Regimen: Single
Assay type: toxicity, organism-based, Sprague-Dawley
Parameters: regimen Single, gender Male, age 6 weeks
Conditions: in vivo, po, route gavage; for APTT / Bas / Eos / Fbg / Hb / Ht / Lym / MCH / MCHC / MCV / Mono / Neu / PT / Plat / RBC / Ret / WBC: tissue Blood; for KIDNEY_L / KIDNEY_R / KIDNEY_TOTAL: tissue Kidney; for LIVER: tissue Liver; for A/G / ALP / ALT / AST / BUN / CRE / Ca / Cl / DBIL / GLC / IP / K / LDH / Na / PL / RALB / TBIL / TC / TG / TP / gamma-GTP: tissue Plasma
[1] = 300 mg/kg, 3 h, dose level Middle
[2] = 300 mg/kg, 6 h, dose level Middle
[3] = 300 mg/kg, 9 h, dose level Middle
[4] = 300 mg/kg, 24 h, dose level Middle
[5] = 1000 mg/kg, 3 h, dose level High
[6] = 1000 mg/kg, 6 h, dose level High
[7] = 1000 mg/kg, 9 h, dose level High
[8] = 1000 mg/kg, 24 h, dose level High

## CCc1cc(C(N)=S)ccn1 [ETHIONAMIDE]
[1]
  TERMINAL_BW: 230.2 g
  APTT: 17.6 s
  Bas: 0%
  Eos: 1%
  Fbg: 208.2 mg/dL
  Hb: 13.7 g/dL
  Ht: 40.6%
  Lym: 79.4%
  MCH: 21.7 pg
  MCHC: 33.7%
  MCV: 64.3 fL
  Mono: 4.8%
  Neu: 15.4%
  PT: 12.5 s
  Plat: 121.1 x10_4/uL
  RBC: 631.4 x10_4/ul
  Ret: 7.4%
  WBC: 69.7 x10_2/uL
  KIDNEY_L: 1 g
  KIDNEY_R: 1.1 g
  KIDNEY_TOTAL: 2.1 g
  LIVER: 11.4 g
  A/G: 1.8
  ALP: 771 IU/L
  ALT: 30.2 IU/L
  AST: 62.8 IU/L
  BUN: 15.6 mg/dL
  CRE: 0.6 mg/dL
  Ca: 10.8 mg/dL
  Cl: 102 meq/L
  DBIL: 0.016 mg/dL
  GLC: 200 mg/dL
  IP: 9.6 mg/dL
  K: 4.2 meq/L
  LDH: 102.4 IU/L
  Na: 141.2 meq/L
  PL: 126.2 mg/dL
  RALB: 3.5 g/dL
  TBIL: 0.4 mg/dL
  TC: 70.4 mg/dL
  TG: 63 mg/dL
  TP: 5.5 g/dL
  gamma-GTP: 1.4 IU/L
[2]
  TERMINAL_BW: 225.7 g
  APTT: 18.3 s
  Bas: 0%
  Eos: 0.8%
  Fbg: 203 mg/dL
  Hb: 14.5 g/dL
  Ht: 43.1%
  Lym: 80.6%
  MCH: 21.8 pg
  MCHC: 33.6%
  MCV: 64.7 fL
  Mono: 6.4%
  Neu: 12.4%
  PT: 13.5 s
  Plat: 124 x10_4/uL
  RBC: 667 x10_4/ul
  Ret: 7.8%
  WBC: 112.6 x10_2/uL
  KIDNEY_L: 1 g
  KIDNEY_R: 1 g
  KIDNEY_TOTAL: 2 g
  LIVER: 10.7 g
  A/G: 2
  ALP: 845.6 IU/L
  ALT: 32.8 IU/L
  AST: 73.2 IU/L
  BUN: 18.4 mg/dL
  CRE: 0.5 mg/dL
  Ca: 11.3 mg/dL
  Cl: 104.2 meq/L
  DBIL: 0.008 mg/dL
  GLC: 188.6 mg/dL
  IP: 9.8 mg/dL
  K: 4.3 meq/L
  LDH: 135.2 IU/L
  Na: 140 meq/L
  PL: 122.8 mg/dL
  RALB: 3.7 g/dL
  TBIL: 0.5 mg/dL
  TC: 66 mg/dL
  TG: 34.2 mg/dL
  TP: 5.6 g/dL
  gamma-GTP: 1 IU/L
[3]
  TERMINAL_BW: 224 g
  APTT: 18.1 s
  Bas: 0%
  Eos: 1.4%
  Fbg: 208.6 mg/dL
  Hb: 14.2 g/dL
  Ht: 42.3%
  Lym: 68.8%
  MCH: 21.2 pg
  MCHC: 33.7%
  MCV: 63.1 fL
  Mono: 8.4%
  Neu: 21.4%
  PT: 14.4 s
  Plat: 119.7 x10_4/uL
  RBC: 669.8 x10_4/ul
  Ret: 7.6%
  WBC: 69.4 x10_2/uL
  KIDNEY_L: 1 g
  KIDNEY_R: 1 g
  KIDNEY_TOTAL: 1.9 g
  LIVER: 10.1 g
  A/G: 2
  ALP: 660.4 IU/L
  ALT: 31 IU/L
  AST: 72 IU/L
  BUN: 15.6 mg/dL
  CRE: 0.5 mg/dL
  Ca: 10.7 mg/dL
  Cl: 106 meq/L
  DBIL: 0.01 mg/dL
  GLC: 195.2 mg/dL
  IP: 10.3 mg/dL
  K: 4.2 meq/L
  LDH: 86.2 IU/L
  Na: 143 meq/L
  PL: 106.6 mg/dL
  RALB: 3.6 g/dL
  TBIL: 0.4 mg/dL
  TC: 57.2 mg/dL
  TG: 19.8 mg/dL
  TP: 5.5 g/dL
  gamma-GTP: 0.8 IU/L
[4]
  TERMINAL_BW: 231.6 g
  APTT: 17.5 s
  Bas: 0%
  Eos: 1%
  Fbg: 194.8 mg/dL
  Hb: 14.2 g/dL
  Ht: 42%
  Lym: 66.2%
  MCH: 21.7 pg
  MCHC: 33.7%
  MCV: 64.3 fL
  Mono: 10%
  Neu: 23.2%
  PT: 13.6 s
  Plat: 112.3 x10_4/uL
  RBC: 653.6 x10_4/ul
  Ret: 7.7%
  WBC: 95 x10_2/uL
  KIDNEY_L: 1.1 g
  KIDNEY_R: 1.1 g
  KIDNEY_TOTAL: 2.2 g
  LIVER: 11.3 g
  A/G: 1.9
  ALP: 1035.2 IU/L
  ALT: 50.4 IU/L
  AST: 81.6 IU/L
  BUN: 15 mg/dL
  CRE: 0.6 mg/dL
  Ca: 10.6 mg/dL
  Cl: 104.6 meq/L
  DBIL: 0.028 mg/dL
  GLC: 190.8 mg/dL
  IP: 7.9 mg/dL
  K: 4.5 meq/L
  LDH: 106.2 IU/L
  Na: 141 meq/L
  PL: 105.2 mg/dL
  RALB: 3.4 g/dL
  TBIL: 0.4 mg/dL
  TC: 49.8 mg/dL
  TG: 77 mg/dL
  TP: 5.2 g/dL
  gamma-GTP: 1.4 IU/L
[5]
  TERMINAL_BW: 227.9 g
  APTT: 17.7 s
  Bas: 0%
  Eos: 1%
  Fbg: 212.6 mg/dL
  Hb: 13.7 g/dL
  Ht: 40.6%
  Lym: 70.8%
  MCH: 21.4 pg
  MCHC: 33.8%
  MCV: 63.5 fL
  Mono: 8.4%
  Neu: 19.8%
  PT: 12.4 s
  Plat: 112.8 x10_4/uL
  RBC: 640 x10_4/ul
  Ret: 7.9%
  WBC: 62.9 x10_2/uL
  KIDNEY_L: 1 g
  KIDNEY_R: 1 g
  KIDNEY_TOTAL: 2 g
  LIVER: 11.1 g
  A/G: 1.9
  ALP: 715 IU/L
  ALT: 33.6 IU/L
  AST: 69 IU/L
  BUN: 13.4 mg/dL
  CRE: 0.5 mg/dL
  Ca: 11 mg/dL
  Cl: 100 meq/L
  DBIL: 0.014 mg/dL
  GLC: 202.8 mg/dL
  IP: 9.1 mg/dL
  K: 4 meq/L
  LDH: 106.4 IU/L
  Na: 139.2 meq/L
  PL: 130.4 mg/dL
  RALB: 3.7 g/dL
  TBIL: 0.4 mg/dL
  TC: 78.6 mg/dL
  TG: 46 mg/dL
  TP: 5.7 g/dL
  gamma-GTP: 1.2 IU/L
[6]
  TERMINAL_BW: 227.1 g
  APTT: 18.3 s
  Bas: 0%
  Eos: 0.8%
  Fbg: 209.2 mg/dL
  Hb: 14.4 g/dL
  Ht: 43.1%
  Lym: 75.6%
  MCH: 21.9 pg
  MCHC: 33.5%
  MCV: 65.3 fL
  Mono: 7.6%
  Neu: 16%
  PT: 13.8 s
  Plat: 118.7 x10_4/uL
  RBC: 659.2 x10_4/ul
  Ret: 7.9%
  WBC: 98.1 x10_2/uL
  KIDNEY_L: 1 g
  KIDNEY_R: 1 g
  KIDNEY_TOTAL: 2 g
  LIVER: 10.4 g
  A/G: 1.8
  ALP: 679 IU/L
  ALT: 33.8 IU/L
  AST: 74.8 IU/L
  BUN: 16 mg/dL
  CRE: 0.5 mg/dL
  Ca: 10.9 mg/dL
  Cl: 102.8 meq/L
  DBIL: 0.004 mg/dL
  GLC: 192.4 mg/dL
  IP: 9.4 mg/dL
  K: 4 meq/L
  LDH: 119.2 IU/L
  Na: 139.2 meq/L
  PL: 111.8 mg/dL
  RALB: 3.6 g/dL
  TBIL: 0.5 mg/dL
  TC: 62.4 mg/dL
  TG: 17.8 mg/dL
  TP: 5.6 g/dL
  gamma-GTP: 1.2 IU/L
[7]
  TERMINAL_BW: 224.3 g
  APTT: 18.3 s
  Bas: 0%
  Eos: 1.2%
  Fbg: 209 mg/dL
  Hb: 14 g/dL
  Ht: 41.3%
  Lym: 73.8%
  MCH: 21.2 pg
  MCHC: 33.8%
  MCV: 62.8 fL
  Mono: 8.4%
  Neu: 16.8%
  PT: 14.6 s
  Plat: 121.3 x10_4/uL
  RBC: 657 x10_4/ul
  Ret: 7.5%
  WBC: 77.3 x10_2/uL
  KIDNEY_L: 1 g
  KIDNEY_R: 1 g
  KIDNEY_TOTAL: 2 g
  LIVER: 9.7 g
  A/G: 1.9
  ALP: 641 IU/L
  ALT: 36.2 IU/L
  AST: 75.2 IU/L
  BUN: 16.4 mg/dL
  CRE: 0.5 mg/dL
  Ca: 10.6 mg/dL
  Cl: 104.6 meq/L
  DBIL: 0.018 mg/dL
  GLC: 202 mg/dL
  IP: 9.6 mg/dL
  K: 4.3 meq/L
  LDH: 99 IU/L
  Na: 140.6 meq/L
  PL: 107.8 mg/dL
  RALB: 3.5 g/dL
  TBIL: 0.4 mg/dL
  TC: 59.4 mg/dL
  TG: 14.8 mg/dL
  TP: 5.3 g/dL
  gamma-GTP: 1.2 IU/L
[8]
  TERMINAL_BW: 219.4 g
  APTT: 18.9 s
  Bas: 0%
  Eos: 1.6%
  Fbg: 186.4 mg/dL
  Hb: 15.3 g/dL
  Ht: 45.1%
  Lym: 62.2%
  MCH: 22.2 pg
  MCHC: 34%
  MCV: 65.3 fL
  Mono: 7.8%
  Neu: 28.2%
  PT: 15.4 s
  Plat: 118 x10_4/uL
  RBC: 691.2 x10_4/ul
  Ret: 8.3%
  WBC: 63.3 x10_2/uL
  KIDNEY_L: 1 g
  KIDNEY_R: 1 g
  KIDNEY_TOTAL: 2 g
  LIVER: 10.1 g
  A/G: 2
  ALP: 839.2 IU/L
  ALT: 36.6 IU/L
  AST: 68.6 IU/L
  BUN: 13 mg/dL
  CRE: 0.6 mg/dL
  Ca: 10.3 mg/dL
  Cl: 102.2 meq/L
  DBIL: 0.054 mg/dL
  GLC: 228.8 mg/dL
  IP: 8.3 mg/dL
  K: 3.9 meq/L
  LDH: 87.6 IU/L
  Na: 140.8 meq/L
  PL: 86.6 mg/dL
  RALB: 3.6 g/dL
  TBIL: 0.4 mg/dL
  TC: 41.4 mg/dL
  TG: 41.8 mg/dL
  TP: 5.3 g/dL
  gamma-GTP: 0.4 IU/L
